# Laboratory results reported in article PMC9304322, “Targeting retinoic acid receptor alpha-corepressor interaction activates chaperone-mediated autophagy and protects against retinal degeneration” (Nature Communications, 2022).
# Values joined by “and” are separate entries in the source; they are usually repeats but may differ in a detail not shown here. Identical values can stand only once.
# System: KFERQ-Dendra mice
# Test: CMA activity in tissues of KFERQ-Dendra mice;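 for % cells: percentage of blood CD4+ T cells with more than 3 CMA puncta per cell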
# Format: in vivo, mouse
# Set-up: Fig. 3g value / Fig. 3g value, Mean 2: unit not given here
# Settings: for Fig. 3g value, Mean 2: group mean of the test details, n 6; for Fig. 3g value / % cells: single replicate values; for % cells: Fig. 3d; for fluorescent Dendra+ puncta in liver: KFERQ-Dendra mice, i.p. 30 mg/kg bw daily for 3 days; for number of Dendra+ puncta per cell in retina (Fig. 4f), average / number of Dendra+ puncta per cell in retina (Fig. 4f), individual fields: flat-mounted retinas; for number of Dendra+ puncta per MAP2 + cell (Fig. 4b), individual sections: hippocampus (CA1 region), i.p. 30 mg/kg bw daily for three consecutive days
# Procedure: C57BL/6 J mice wild-type (WT) and homozygous for the Pde6 mutation (rd10 mouse model of retinal degeneration) were obtained from The Jackson Laboratory and experiments were performed at the age indicated in each part of the study. C57BL/6 KFERQ-Dendra mice were generated by back-crossing FVB KFERQ-Dendra mice with wild-type C57BL/6 mice for 8 generations. Both male and female animals were used in this study in equally distribution groups. However, results from both sexes were pooled, because of absence of significant differences in any of the parameters analyzed after statistical analysis with a mixed model of two-way ANOVA sex and treatment as independent variables and the corresponding measure as dependent variable. All animals were housed in a barrier-controlled facility (19–23 °C 30–60% relative humidity; 12 h light/dark cycle) with ad libitum access to standard chow pellets (protein 19 gm%/carbohydrate 67 gm%/fat 4 gm%) and water. For animal administration of CA compounds, a formula containing 30% PEG 400 (Sigma, #8.0745), 65% of 5% glucose solution, 5% Tween 80 (Sigma, #P1754) was used to dissolve them. CA compounds were prepared freshly by adding 5% DMSO and sonicating for 1 h. Treatment of KFERQ-Dendra mice with the CA compounds was done at 4 months of age by i.p. daily injection of 30 mg/kg bw or vehicle for three consecutive days and tissues collected 6 h after the last injection. In the case of rd10 mice, animals were daily injected from P18 to P25 with CA77 (40 mg/kg bw). In the case of intravitreal administration, a single intravitreal injection was applied at P18 with CA77 (40 µM) in DMSO/PBS and the contralateral eye was injected with PBS and DMSO at same concentration. At P26, mice were sacrificed and eyes fixed overnight with 4% PFA (Sigma, #P6148) in PBS at 4 °C for immunofluorescence or retinas dissected and immediately frozen for biochemistry. Distribution of animals in the vehicle or treatment group was done randomly. ICR (CD-1) outbred 3 months old male mice from ENVIGO were used for the pharmacokinetic studies (see pharmacokinetic section for housing and handling details). All animal studies and procedures complied with ethical regulations, were performed in accordance with the European Union guidelines and the ARVO Statement for the Use of Animals in Ophthalmic and Vision Research and were approved by the Institutional Animal Care and Use Committee at the Albert Einstein College of Medicine, the CSIC Bioetica Comite and approved by the Comunidad de Madrid, PROEX232/17.
# All mice were perfused with PBS. Livers were post-fixed overnight at 4 °C in picric acid fixation buffer (2% formaldehyde, 0.2% picric acid in PBS, pH7.0) and then washed with 70% ethanol, followed by two washes in PBS. Livers were immersed in 30% sucrose and then embedded in OCT for sectioning in a cryostat (Leica CM3050 S). After airdrying for 30 min, sections were stored at −20 °C until use. Brains were post-fixed for 12 h in 4% paraformaldehyde, cryoprotected in PBS containing 20% sucrose before being frozen by immersion in a cold isopentane bath (−50 °C), and stored immediately at −80 °C until sectioning. Brains were also sectioned in a cryostat at −20 °C in coronal 40 μm-thick free-floating sections. Immunostainings were performed after permeabilization of the sections with 0.3% Triton X-100 in PBS for 30 minutes at RT followed by blocking (10% normal goat serum, 2% Triton X-100 in PBS) and subsequent incubation with the primary and appropriate anti-species secondary antibody. Cell nuclei were stained using Hoechst (Life Technologies, 33342) at 1:5000 for 30 s (in retina) or 10 min (in brain sections) prior to mounting. Images were acquired with a Leica confocal TCS-SP8 (Leica Microsystem) using an HCX Plan Apo CS ×63.0 1.40 NA oil objective and the Leica Application Suite X (LAS X). Puncta was quantified using ImageJ Software (NIH)[38] after thresholding. […]
# [1] = i.p. 30 mg/kg bw daily for three days
# [2] = i.p. 30 mg/kg bw daily for three days, 30 mg/kg
SMILES,"Fig. 3g value, Mean 2",Fig. 3g value,% cells,fluorescent Dendra+ puncta in liver,"number of Dendra+ puncta per cell in retina (Fig. 4f), average [1]","number of Dendra+ puncta per cell in retina (Fig. 4f), individual fields [2]","number of Dendra+ puncta per MAP2 + cell (Fig. 4b), individual sections (30 mg/kg)","number of Dendra+ puncta in individual TH+ cells (Fig. S8d) (midbrain substantia nigra, i.p. 30 mg/kg bw daily for three days, 30 mg/kg)"
CC(=O)Nc1ccc(C2=Nc3ccc(Cl)cc3OC2)cc1 [CA77],17.33,10 and 12 and 22 and 23 and 19 and 18,9% and 28% and 12% and 18% and 22% and 17% and 32% and 26%,significant increase in the number of fluorescent Dendra^+ puncta,1.396 puncta/cell,1.250 puncta/cell and 1.040 puncta/cell and 1.583 puncta/cell and 1.063 puncta/cell and 1.100 puncta/cell and 1.667 puncta/cell and 1.375 puncta/cell and 1.846 puncta/cell and 1.000 puncta/cell and 1.750 puncta/cell and 1.684 puncta/cell,22 and 17 and 15 and 26 and 12 and 18 and 9 and 5,–
Clc1ccc2c(c1)OCC(c1ccc(-c3ccccc3)cc1)=N2 [CA39],20,16.28 and 30.33 and 23.44 and 14.29 and 16.39 and 19.29,21% and 39% and 30% and 21.8% and 22.6% and 12.2% and 9.5% and 24.2% and 12.8% and 21.2%,significant increase in the number of fluorescent Dendra^+ puncta,1.185 puncta/cell,1.154 puncta/cell and 0.857 puncta/cell and 0.867 puncta/cell and 0.700 puncta/cell and 1.556 puncta/cell and 1.350 puncta/cell and 1.500 puncta/cell and 0.737 puncta/cell and 1.385 puncta/cell and 0.958 puncta/cell and 0.950 puncta/cell and 2.000 puncta/cell and 1.182 puncta/cell and 1.400 puncta/cell,20 and 22 and 18 and 25 and 16 and 15 and 12 and 10,27 and 32 and 4 and 2 and 55 and 34 and 23 and 3 and 21 and 1 and 48 and 38 and 6 and 39 and 22 and 45 and 12 and 35
